According to ChEMBL document CHEMBL5137094, “Construction of Covalent Bisubstrate Inhibitor of Protein Kinase Reacting with Cysteine Residue at Substrate-Binding Site” (J Med Chem, 2022):
Active and inactive are the calls of the source. No cut-off for these calls is given here.

Assays:
[1] = molecular target: T1, cAMP-dependent protein kinase catalytic subunit alpha (Homo sapiens, UniProt P17612); assay: Binding affinity to recombinant human spiked PKAC-alpha in human HeLa cells assessed as covalent compound-protein adduct formation by measuring multiple fluorescent band formation at 0.15 to 1 uM incubated for 1 hr by 5-TAMRA dye based Western blot analysis; format: cell-based; settings: dose 0.15-1 µM
[2] = Drug uptake in live human HeLa cells assessed as drug penetration by measuring increase in fluorescence intensity at 5 uM incubated for 2 hrs by PKAc antibody immunostaining based Western blot analysis; format: ADME, cell-based
[3] = Drug uptake in human HeLa cell lysates assessed as drug penetration by measuring increase in fluorescence intensity at 1.5 uM incubated for 2 hrs by PKAc antibody immunostaining based Western blot analysis; format: ADME, subcellular
[4] = molecular target: T1, cAMP-dependent protein kinase catalytic subunit alpha; assay: Binding affinity to recombinant human PKAC-alpha in human HeLa cells assessed as increase in intensity of fluorescent labeled bands at 5 uM incubated for 2 hrs in presence of forskolin by Western blot analysis; format: cell-based
[5] = Drug uptake in live human HeLa cells assessed as drug internalization at 5 uM incubated for 15 mins to 2 hrs in presence of forskolin by live cell imaging analysis; format: ADME, cell-based; settings: time 15-120 min
[6] = Drug uptake in live human HeLa cells assessed as drug internalization at 5 uM incubated for 15 mins to 2 hrs in absence of forskolin by live cell imaging analysis; format: ADME, cell-based; settings: time 15-120 min
[7] = Drug uptake in endosome of human HeLa cells assessed as punctate perinuclear pattern formation at 1 to 5 uM incubated for 15 mins to 2 hrs by live cell imaging analysis; format: ADME, subcellular; settings: dose lower 1 µM, time lower 15 min, dose upper 5 µM, time upper 120 min
[8] = Drug uptake in cytoplasm of human HeLa cells at 1 to 5 uM incubated for 15 mins to 2 hrs by live cell imaging analysis; format: ADME, subcellular; settings: dose lower 1 µM, time lower 15 min, dose upper 5 µM, time upper 120 min
[9] = Drug uptake in cell membrane of human HeLa cells assessed as observation of cell plasma membrane protrusions at 1 to 5 uM incubated for 15 mins to 2 hrs by live cell imaging analysis; format: ADME, cell membranes; settings: dose lower 1 µM, time lower 15 min, dose upper 5 µM, time upper 120 min
[10] = Drug uptake in endosome of human HeLa cells assessed as punctate perinuclear pattern formation at 1 to 5 uM incubated for 15 mins to 2 hrs in presence of forskolin by live cell imaging analysis; format: ADME, subcellular; settings: dose lower 1 µM, time lower 15 min, dose upper 5 µM, time upper 120 min
[11] = Drug uptake in cytoplasm of human HeLa cells at 1 to 5 uM incubated for 15 mins to 2 hrs in presence of forskolin by live cell imaging analysis; format: ADME, subcellular; settings: dose lower 1 µM, time lower 15 min, dose upper 5 µM, time upper 120 min
[12] = Drug uptake in cell membrane of human HeLa cells assessed as observation of cell plasma membrane protrusions at 1 to 5 uM incubated for 15 mins to 2 hrs in presence of forskolin by live cell imaging analysis; format: ADME, cell membranes; settings: dose lower 1 µM, time lower 15 min, dose upper 5 µM, time upper 120 min
[13] = Drug uptake in live human HeLa cells assessed as increase in fluorescence intensity at 1 to 5 uM by microplate reader analysis; format: ADME, cell-based; settings: TDE = time-dependent effect, dose lower 1 µM, time lower 15 min, dose upper 5 µM, time upper 120 min

| SMILES | Activity [1] | Drug uptake [2] | Drug uptake [3] | Activity [4] | Drug uptake [5] | Drug uptake [6] | Drug uptake [7] | Drug uptake [8] | Drug uptake [9] | Drug uptake [10] | Drug uptake [11] | Drug uptake [12] | Drug uptake [13] |
| --- | --- | --- | --- | --- | --- | --- | --- | --- | --- | --- | --- | --- | --- |
| CC[C@H](C)[C@H](NC(=O)CCC(=O)N[C@@H](CCCCNC(=O)[C@@H](CCCNC(=N)N)NC(=O)CCCCCCCC(=O)N1CCN(c2ncnc3[nH]ccc23)CC1)C(=O)N[C@H](CCCNC(=N)N)C(=O)N[C@H](CCCNC(=N)N)C(=O)N[C@H](CCCCNC(=O)CCCCC[N+]1=C(/C=C/C=C/C=C2\N(C)c3ccc4ccccc4c3C2(C)C)C(C)(C)c2c1ccc1ccccc21)C(N)=O)C(=O)NCC(=O)CF | Active | Active | Active | Active | – | – | – | – | – | – | – | – | – |
| CC[C@H](C)[C@H](NC(=O)CCC(=O)N[C@@H](CCCCNC(=O)[C@@H](CCCNC(=N)N)NC(=O)CCCCCCCC(=O)N1CCN(c2ncnc3[nH]ccc23)CC1)C(=O)N[C@H](CCCNC(=N)N)C(=O)N[C@H](CCCNC(=N)N)C(=O)N[C@H](CCCCNC(=O)CCCCC[N+]1=C(/C=C/C=C/C=C2\N(C)c3ccccc3C2(C)C)C(C)(C)c2ccccc21)C(N)=O)C(=O)NCC(=O)CF | – | – | – | – | Active | Active | Active | Active | Active | Active | Active | Active | Tde |
